Source: the CheMixHub viscosity set
Several values for one entry are separate records, joined by “and”; a condition that tells them apart may be missing. Equal entries are not always repeated.

Assays:
[1] = xn = mol fraction of the nth substance listed

C1CCCCCCC1
101 kPa
Conditions | viscosity
298.15 K | 2.25 mPa·s
303 K | 2.007 mPa·s
303.15 K | 2.031 mPa·s
308.15 K | 1.818 mPa·s (2×) and 1.818 mPa·s
313.15 K | 1.649 mPa·s and 1.692 mPa·s

CC(=O)CC(C)(C)O
Conditions | viscosity [mPa·s]
298.15 K, 101 kPa | 2.902

CC(=O)O.NCCO
viscosity
Conditions | 293.15 K | 298.15 K | 303.15 K | 308.15 K | 313.15 K | 318.15 K | 323.15 K
101 kPa | 5032 mPa·s | 3167 mPa·s | 2044 mPa·s | 1369 mPa·s | 947.7 mPa·s | 661 mPa·s | 477.5 mPa·s
101.3 kPa | 3423 mPa·s | 2300 mPa·s and 2300 mPa·s and 2267 mPa·s | 1502 mPa·s | 1021 mPa·s | 711.1 mPa·s | 506.5 mPa·s | 368.3 mPa·s

CC(C)=CC(=O)C=C(C)C
Conditions | viscosity [mPa·s]
298.15 K, 101 kPa | 1.394

CC(C)CC(C)O (stereo not given)
Conditions | viscosity
298.15 K, 101.33 kPa | 3.823 mPa·s and 3.823 mPa·s

CC/C=C\CCO
100 kPa
Conditions | viscosity [mPa·s]
293.15 K | 3.336
298.15 K | 2.921
303.15 K | 2.566
308.15 K | 2.266
313.15 K | 2.012
318.15 K | 1.807

CC1(C)OCC(CO)O1 (stereo not given)
101 kPa
Conditions | viscosity [mPa·s]
298.15 K | 9.643
308.15 K | 6.834
318.15 K | 5.076

CCCCC
viscosity
Conditions | 100 kPa | 101 kPa | 101.33 kPa
293.15 K | 0.222 mPa·s | – | –
298.15 K | 0.212 mPa·s | 0.2121 mPa·s and 0.214 mPa·s | 0.223 mPa·s and 0.223 mPa·s and 0.237 mPa·s

CCCCC(=O)OCC
101.33 kPa
Conditions | viscosity [mPa·s]
293.15 K | 0.846
303.15 K | 0.694
313.15 K | 0.629

CCCCCCCCCC
viscosity
Conditions | 293.15 K | 298.15 K | 303.15 K | 308.15 K | 313.15 K | 318.15 K | 323.15 K
100 kPa | 0.928 mPa·s and 0.918 mPa·s | 0.853 mPa·s and 0.874 mPa·s | 0.807 mPa·s and 0.795 mPa·s (2×) and 0.791 mPa·s | 0.745 mPa·s and 0.744 mPa·s | 0.691 mPa·s and 0.7 mPa·s (2×) and 0.699 mPa·s | 0.66 mPa·s and 0.659 mPa·s | 0.624 mPa·s
101 kPa | – | – | 0.802 mPa·s and 0.803 mPa·s | – | 0.6883 mPa·s | 0.66 mPa·s and 0.6182 mPa·s and 0.6466 mPa·s | 0.6085 mPa·s
101.32 kPa | 0.91 mPa·s | – | 0.785 mPa·s | – | – | – | –
101.33 kPa | 0.91 mPa·s | – | 0.774 mPa·s and 0.793 mPa·s and 0.755 mPa·s | – | 0.673 mPa·s | 0.619 mPa·s | –
103 kPa | – | 0.842 mPa·s | – | 0.727 mPa·s | – | 0.64 mPa·s | –

CCCCCCCO
viscosity
Conditions | 100 kPa | 101 kPa | 101.3 kPa | 101.33 kPa
293.15 K | 7.018 mPa·s | – | 7.079 mPa·s | –
298 K | 5.956 mPa·s | – | – | –
298.15 K | – | – | 5.758 mPa·s | 5.69 mPa·s and 5.652 mPa·s
303 K | 4.778 mPa·s | – | – | –
303.15 K | 5.014 mPa·s | 4.996 mPa·s and 4.783 mPa·s | 4.814 mPa·s and 4.785 mPa·s | –
308.15 K | 4.275 mPa·s | 4.176 mPa·s and 4.691 mPa·s and 4.069 mPa·s | 4.2 mPa·s and 4.051 mPa·s and 4.691 mPa·s | 4.002 mPa·s and 4.045 mPa·s and 4.175 mPa·s
313 K | 3.228 mPa·s | 3.55 mPa·s | – | –
313.15 K | 3.656 mPa·s and 3.702 mPa·s and 3.735 mPa·s | 3.723 mPa·s and 4.598 mPa·s | 3.579 mPa·s | –
318.15 K | 3.407 mPa·s | – | 3.447 mPa·s | –
323 K | 2.529 mPa·s | – | – | –
323.15 K | 2.741 mPa·s and 2.8 mPa·s | – | – | 2.741 mPa·s and 2.741 mPa·s

CCCCCCn1cc[n+](C)c1.O=S(=O)([N-]S(=O)(=O)C(F)(F)F)C(F)(F)F
viscosity
Conditions | 293.15 K | 298.15 K | 303.15 K | 308.15 K | 313.15 K | 318.15 K | 323.15 K
100 kPa | 89 mPa·s and 85.15 mPa·s | 65.94 mPa·s | 51.91 mPa·s | 41.36 mPa·s | 33.79 mPa·s | – | –
101 kPa | – | – | 58.3 mPa·s | 50.4 mPa·s | 41.4 mPa·s | 35 mPa·s | 28.8 mPa·s

CCCCN(CCC#N)CCCC
Conditions | viscosity [mPa·s]
303.15 K, 100 kPa | 2.5

CCN(CC)CCO
viscosity
Conditions | 298.15 K | 303.15 K | 313.15 K | 323.15 K
101.3 kPa | – | 3.308 mPa·s | 2.414 mPa·s | 1.466 mPa·s
101.33 kPa | 4.022 mPa·s and 4.01 mPa·s | 3.308 mPa·s | 2.414 mPa·s | –

CCN(CC)S(C)(=O)=O
Conditions | viscosity [mPa·s]
303.15 K, 101.33 kPa | 40590

COP(=O)([O-])OC.C[N+]1(CCO)CCCC1
100 kPa
Conditions | viscosity [mPa·s]
293.15 K | 1452
298.15 K | 980.6
303.15 K | 687.4
308.15 K | 496.1
313.15 K | 366
318.15 K | 272.8
323.15 K | 210.2

CS(C)=O
Conditions | viscosity
293.15 K, 100 kPa | 2.11 mPa·s and 2.23 mPa·s and 2.239 mPa·s
298 K, 101.3 kPa | 2.024 mPa·s
298.15 K, 101 kPa | 1.79 mPa·s
298.15 K, 101.3 kPa | 1.944 mPa·s and 1.926 mPa·s
298.15 K, 101.33 kPa | 1.848 mPa·s
299 K, 101 kPa | 3.143 mPa·s
302.4 K, 101 kPa | 3.676 mPa·s
303.15 K, 100 kPa | 1.79 mPa·s
303.15 K, 101.3 kPa | 1.788 mPa·s and 1.788 mPa·s (2×) and 1.788 mPa·s
308.15 K, 100 kPa | 1.63 mPa·s
308.15 K, 101.33 kPa | 1.498 mPa·s
313.15 K, 100 kPa | 1.5 mPa·s
313.15 K, 101.33 kPa | 1.449 mPa·s and 1.619 mPa·s
318.15 K, 101.3 kPa | 1.31 mPa·s and 1.31 mPa·s
318.15 K, 101.33 kPa | 1.317 mPa·s
323.15 K, 101.3 kPa | 1.284 mPa·s
323.15 K, 101.33 kPa | 1.221 mPa·s and 1.433 mPa·s

C[N+](C)(C)CCC[n+]1ccccc1.N#C[N-]C#N.N#C[N-]C#N
100 kPa
Conditions | viscosity
293.15 K | 2191 mPa·s and 2191 mPa·s
298.15 K | 1306 mPa·s
303.15 K | 830.8 mPa·s and 830.8 mPa·s
308.15 K | 557.7 mPa·s
313.15 K | 386 mPa·s and 386 mPa·s
318.15 K | 280.7 mPa·s
323.15 K | 210.2 mPa·s and 210.2 mPa·s

OC1CCCCC1
viscosity
Conditions | 293.15 K | 298.15 K | 303.15 K | 308 K | 308.15 K | 313.15 K | 318.15 K | 318.16 K | 323.15 K
100 kPa | 83.29 mPa·s | 58.97 mPa·s | 43.42 mPa·s | – | 33.66 mPa·s and 32.39 mPa·s | 25.52 mPa·s and 25.85 mPa·s | 20.14 mPa·s | 19.5 mPa·s | –
101 kPa | – | – | 23.6 mPa·s and 39.55 mPa·s | 27.95 mPa·s | 27.95 mPa·s | – | – | – | 8.89 mPa·s

C1CCCCCCC1 + c1ccccc1
[1], 303.15 K, 101 kPa
Conditions | viscosity [mPa·s]
x1 = 0.1002 | 0.5993
x1 = 0.2 | 0.6484
x1 = 0.2967 | 0.7078
x1 = 0.3983 | 0.788
x1 = 0.4982 | 0.8861
x1 = 0.6999 | 1.179
x1 = 0.8961 | 1.654

CCCCC + c1ccccc1
[1], 298.15 K, 101.33 kPa
Conditions | viscosity [mPa·s]
x2 = 0.1622 | 0.241
x2 = 0.3515 | 0.274
x2 = 0.4439 | 0.295
x2 = 0.5608 | 0.328
x2 = 0.6851 | 0.375
x2 = 0.8001 | 0.434
x2 = 0.9056 | 0.505

CS(C)=O + c1ccccc1
viscosity [mPa·s], [1], 101.3 kPa
Conditions | x1 = 0.1043 | x1 = 0.2048 | x1 = 0.3059 | x1 = 0.4069 | x1 = 0.5105 | x1 = 0.6085 | x1 = 0.7063 | x1 = 0.8049 | x1 = 0.9029
298.15 K | 0.669 | 0.743 | 0.829 | 0.923 | 1.036 | 1.169 | 1.317 | 1.492 | 1.712
303.15 K | 0.622 | 0.69 | 0.766 | 0.853 | 0.955 | 1.071 | 1.207 | 1.367 | 1.562
308.15 K | 0.581 | 0.643 | 0.714 | 0.796 | 0.884 | 0.99 | 1.111 | 1.258 | 1.426

CCC(N)=O + c1ccncc1
[1], 298.15 K, 101 kPa
Conditions | viscosity [mPa·s]
x1 = 0.0852 | 1.047
x1 = 0.1462 | 1.208
x1 = 0.2521 | 1.615
